Data: the supplement of paper PMC6045584
± gives the standard deviation of the averaged measurements.

Experiments:
CARBOPLATIN = compound: O=C(O)C1(C(=O)O)CCC1.[NH2-].[NH2-].[Pt+2] [CARBOPLATIN]; experiment: area under dose-response curve of surviving fraction (unscaled, Aref=0) (surviving fraction x log10(nM)); higher = more resistant; settings: exposure time: 5 days; dose range 0.5-1000 nM
How it was run: (§1)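 Each tumour cell line was screened three times in 384-well plates, receiving eight inhibitor concentrations from 0.5 to 1000 nM for five days. CellTiter-Glo luminescence gave viability, normalised to DMSO-only wells. Using the drc R package, surviving fractions were fitted with 3-parameter logistic dose-response curves, and the unscaled activity area over log10 dose (Aref = 0) was taken as the area under the curve.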

[1] = compound: CC(=O)c1c(C)c2cnc(Nc3ccc(N4CCNCC4)cn3)nc2n(C2CCCC2)c1=O; experiment: as above; settings: exposure time: 5 days; dose range 0.5-1000 nM
How it was run: as §1

[2] = compound: CC(=O)NCC(=O)N1[C@@H]2CC[C@H]1c1ccc(Nc3ncc(C(F)(F)F)c(NC4CCC4)n3)cc12; experiment: as above; settings: exposure time: 5 days; dose range 0.5-1000 nM
How it was run: as §1

YM155 = compound: COCC[n+]1c2c(n(Cc3cnccn3)c1C)C(=O)c1ccccc1C2=O [YM155]; experiment: as above; settings: exposure time: 5 days; dose range 0.5-1000 nM
How it was run: as §1

OSI-906 [3] = compound: T1, C[C@]1(O)C[C@@H](c2nc(-c3ccc4ccc(-c5ccccc5)nc4c3)c3c(N)nccn32)C1 [OSI-906]; experiment: as above; settings: exposure time: 5 days; dose range 0.5-1000 nM
How it was run: as §1

PACLITAXEL = compound: CC(=O)O[C@H]1C(=O)[C@@]2(C)[C@H]([C@H](OC(=O)c3ccccc3)[C@]3(O)C[C@H](OC(=O)[C@H](O)[C@@H](NC(=O)c4ccccc4)c4ccccc4)C(C)=C1C3(C)C)[C@]1(OC(C)=O)CO[C@@H]1C[C@@H]2O [PACLITAXEL]; experiment: as above; settings: exposure time: 5 days; dose range 0.5-1000 nM
How it was run: as §1

CELECOXIB = compound: Cc1ccc(-c2cc(C(F)(F)F)nn2-c2ccc(S(N)(=O)=O)cc2)cc1 [CELECOXIB]; experiment: as above; settings: exposure time: 5 days; dose range 0.5-1000 nM
How it was run: as §1

CAMPTOTHECIN = compound: CC[C@@]1(O)C(=O)OCc2c1cc1n(c2=O)Cc2cc3ccccc3nc2-1 [CAMPTOTHECIN]; experiment: as above; settings: exposure time: 5 days; dose range 0.5-1000 nM
How it was run: as §1

OSI-906 [4] = compound: T1, OSI-906; experiment: surviving fraction relative to DMSO-only wells; higher = less growth inhibition; settings: exposure time: 5 days
How it was run: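 After seeding at 250–500 cells per well in 384-well plates and a 24-hour wait, log-phase tumour cell lines were exposed without interruption for five days to inhibitors at 0.5, 1, 5, 10, 50, 100, 500 and 1000 nM. CellTiter-Glo luminescence was recorded after 10 minutes at room temperature. Viability is reported as surviving fraction, the luminescence normalised to the median of DMSO-only wells.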

GEFITINIB = compound: COc1cc2ncnc(Nc3ccc(F)c(Cl)c3)c2cc1OCCCN1CCOCC1 [GEFITINIB]; experiment: area under dose-response curve of surviving fraction (unscaled, Aref=0) (surviving fraction x log10(nM)); higher = more resistant; settings: exposure time: 5 days; dose range 0.5-1000 nM
How it was run: as §1

Test System	area under dose-response curve (CARBOPLATIN)	area under dose-response curve [1]	area under dose-response curve [2]	area under dose-response curve (YM155)	area under dose-response curve (OSI-906 [3])	area under dose-response curve (PACLITAXEL)	area under dose-response curve (CELECOXIB)	area under dose-response curve (CAMPTOTHECIN)	surviving fraction (OSI-906 [4]; 0.5 nM)	surviving fraction (OSI-906 [4]; 1 nM)	surviving fraction (OSI-906 [4]; 5 nM)	surviving fraction (OSI-906 [4]; 10 nM)	surviving fraction (OSI-906 [4]; 50 nM)	surviving fraction (OSI-906 [4]; 100 nM)	surviving fraction (OSI-906 [4]; 500 nM)	surviving fraction (OSI-906 [4]; 1000 nM)	area under dose-response curve (GEFITINIB)
HCC70 BREAST	3.56	3.53	2.46	2.27	3.29	0.799	3.62	1.9	0.861 ± 0.13	1.02 ± 0.099	1.04 ± 0.081	1.02 ± 0.055	1.04 ± 0.018	1.08 ± 0.017	1 ± 0.053	0.924 ± 0.11	
HCC78 LUNG	3.35		2.33	0.851	2.75	0.585	3.06	0.338	0.712 ± 0.28	0.809 ± 0.2	0.954 ± 0.15	0.94 ± 0.15	0.801 ± 0.15	0.831 ± 0.13	0.764 ± 0.059	0.842 ± 0.12	
HCC1395 BREAST	3.87	3.96	3.19	2.28		1.76	4.09	2.09	0.851 ± 0.028	0.962 ± 0.13	0.977 ± 0.095	0.949 ± 0.027	1.04 ± 0.014	1.12 ± 0.13	0.847 ± 0.14	0.986 ± 0.043	3.91
HMLE3 BREAST		3.23	2.59	1.02	2.79	0.754	3.53	0.888	0.808 ± 0.068	0.887 ± 0.071	0.931 ± 0.045	0.841 ± 0.0091	0.875 ± 0.047	0.901 ± 0.079	0.783 ± 0.035	0.724 ± 0.12	
HMT3552 BREAST				1.94	3.17		3.77	1.48	0.916 ± 0.058	0.942 ± 0.017	0.988 ± 0.057	0.937 ± 0.064	1.05 ± 0.05	0.954 ± 0.023	0.828 ± 0.073	0.748 ± 0.035	3.14
HS57T BREAST									0.862 ± 0.014	0.89 ± 0.068	0.869 ± 0.047	0.902 ± 0.052	0.934 ± 0.032	0.881 ± 0.023	0.915 ± 0.047	0.826 ± 0.082	
HS578T BREAST		3.49	2.72	2.61	3.11	0.471	3.16	1.81	0.846 ± 0.12	0.968 ± 0.16	0.865 ± 0.12	0.846 ± 0.049	1.09 ± 0.13	0.931 ± 0.19	1.07 ± 0.073	1.15 ± 0.18	3.1
JURKAT HAEMATOPOIETIC AND LYMPHOID TISSUE	3.39		2.31	1.3	3.25	0.401	3.37	0.802	0.966 ± 0.033	0.971 ± 0.013	0.998 ± 0.032	0.9753 ± 0.009	0.98 ± 0.067	0.965 ± 0.039	1.02 ± 0.012	0.99 ± 0.021	3.46
LM7 BONE		3.43	2.54	0.956	2.32	0.746	3.39	0.895	0.743 ± 0.037	0.717 ± 0.062	0.801 ± 0.074	0.747 ± 0.041	0.867 ± 0.011	0.771 ± 0.048	0.48 ± 0.023	0.435 ± 0.025	3.49
